Laboratory results as given in ChEMBL document CHEMBL4339189, “Dissymmetric pyridyl-substituted 3,5-bis(arylidene)-4-piperidones as anti-hepatoma agents by inhibiting NF-κB pathway activation” (Eur J Med Chem, 2019).
The source made the active and inactive calls. The rule behind the calls is not given here.

Key:
[1] = biological target: Transcription factor p65 (Mus musculus) (UniProt Q04207); experiment: Inhibition of NFkappaB activation in mouse RAW264.7 cells assessed as reduction in TNFalpha-induced p65 phosphorylation at 1 to 4 uM incubated for 2 hrs after pre-incubation with LPS for 15 mins by Western blot analysis; format: cell-based
[2] = test system: SMMC-7721; experiment: Induction of apoptosis in human SMMC7721 cells assessed as increase in apoptotic cell population at 2.0 uM incubated for 24 hrs by Annexin V-FITC/propidium iodide staining based flow cytometry relative to control; format: functional
[3] = test system: HepG2; experiment: Antitumor activity against human HepG2 cells xenografted in Balb/c nude mouse assessed as effect on tumor volume level at 0.1 mg/kg, ip administered every 2 days for 20 days and measured every 2 days; format: functional, organism-based
[4] = test system: RAW264.7; experiment: Antiinflammatory activity in mouse RAW264.7 cells assessed as inhibition of LPS-stimulated TNF-alpha production at 6.0 uM preincubated for 2 hrs followed by LPS stimulaton measured after 22 hrs by ELISA relative to control; format: functional
[5] = test system: Mus musculus; experiment: Antiinflammatory activity in human HepG2 cells xenografted Balb/c nude mouse assessed as reduction in TNFalpha protein expression at 10 mg/kg, ip administered every 2 days for 20 days and measured every 2 days by immunohistochemistry; format: functional, organism-based
[6] = test system: HepG2; experiment: Antitumor activity against human HepG2 cells xenografted in Balb/c nude mouse assessed as tumor volume level at 10 mg/kg, ip administered every 2 days for 20 days and measured every 2 days; format: functional
[7] = test system: Mus musculus; experiment: Antiinflammatory activity in human HepG2 cells xenografted Balb/c nude mouse assessed as reduction in TNFalpha protein expression at 0.1 mg/kg, ip administered every 2 days for 20 days and measured every 2 days by immunohistochemistry; format: functional, organism-based
[8] = test system: HepG2; experiment: Induction of apoptosis in human HepG2 cells assessed as reduction in Bcl-2 expression up to 4 uM after 24 hrs by Western blot analysis; format: functional, cell-based
[9] = biological target: T1, NF-kappa-B inhibitor alpha (Mus musculus) (UniProt Q9Z1E3); experiment: Inhibition of NFkappaB signalling activation in mouse RAW264.7 cells assessed as reduction in […] IkBalpha phosphorylation at 1 to 4 uM incubated for 2 hrs after pre-incubation with LPS for 15 mins by Western blot analysis; format: cell-based
T1 sequence (whole entry): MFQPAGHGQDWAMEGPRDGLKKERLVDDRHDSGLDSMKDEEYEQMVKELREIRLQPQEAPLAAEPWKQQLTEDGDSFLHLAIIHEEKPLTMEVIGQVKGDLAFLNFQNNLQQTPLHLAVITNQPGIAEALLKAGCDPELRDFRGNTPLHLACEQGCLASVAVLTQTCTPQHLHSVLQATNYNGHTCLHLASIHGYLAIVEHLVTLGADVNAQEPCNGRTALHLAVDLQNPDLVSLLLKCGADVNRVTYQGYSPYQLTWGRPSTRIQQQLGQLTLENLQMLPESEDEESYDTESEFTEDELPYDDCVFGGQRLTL

Transcription factor p65 (Mus musculus), sequence (Q04207 whole entry): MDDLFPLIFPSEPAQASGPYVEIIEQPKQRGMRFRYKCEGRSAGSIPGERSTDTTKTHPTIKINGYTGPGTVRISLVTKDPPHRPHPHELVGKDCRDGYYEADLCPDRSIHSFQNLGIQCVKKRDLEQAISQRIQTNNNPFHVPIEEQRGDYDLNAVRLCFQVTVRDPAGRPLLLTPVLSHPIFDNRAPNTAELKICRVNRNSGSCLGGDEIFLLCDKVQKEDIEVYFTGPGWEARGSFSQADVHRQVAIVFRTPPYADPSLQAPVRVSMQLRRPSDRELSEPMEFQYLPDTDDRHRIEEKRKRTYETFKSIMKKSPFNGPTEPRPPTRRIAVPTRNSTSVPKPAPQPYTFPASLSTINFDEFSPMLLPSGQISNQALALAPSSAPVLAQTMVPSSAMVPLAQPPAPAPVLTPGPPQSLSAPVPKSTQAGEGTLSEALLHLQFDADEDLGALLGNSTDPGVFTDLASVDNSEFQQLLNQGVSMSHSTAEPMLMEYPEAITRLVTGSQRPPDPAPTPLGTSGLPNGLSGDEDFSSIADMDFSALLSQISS

inhibition [1]: Dose-dependent effect
inhibition [9]: Dose-dependent effect
Compound: O=C1/C(=C/c2cccnc2)CN(S(=O)(=O)c2ccc(C(F)(F)F)cc2)C/C1=C\c1ccccc1C(F)(F)F
Activity [2]: 40%
Activity [3]: inactive
inhibition at 6 µM [4]: ≤ 15%
Activity [5]: Active
Activity [6]: <200 mm3
Activity [7]: inactive
Activity [8]: Dose-dependent effect
